Data from the kinase profiling compilation of Christmann-Franck et al. (2016).

Columns and labels:
Test in all cases: KINOMEscan competition binding
Conditions in all cases: compound 10.0 µM
[1] = target: STK17B (human) (UniProt O94768)
[2] = target: STK16 (human) (UniProt O75716)
[3] = target: CDC2L2 (human) (UniProt Q9UQ88)
[4] = target: CDC42BPG (human) (UniProt Q6DT37)
[5] = target: NEK7 (human) (UniProt Q8TDX7)
[6] = target: TXK (human) (UniProt P42681)
[7] = test system: FGFR3 (human), P22607 [G697C]
[8] = target: MYO3B (human) (UniProt Q8WXR4)
[9] = target: STK39 (human) (UniProt Q9UEW8)
[10] = target: EPHB1 (human) (UniProt P54762)
[11] = test system: FLT3 (human), P36888 [D835Y]
[12] = target: DCLK3 (human) (UniProt Q9C098)
[13] = target: RPS6KA2 KD2 (human) (UniProt Q15349)
[14] = target: BLK (human) (UniProt P51451)
[15] = target: AURKC (human) (UniProt Q9UQB9)
[16] = test system: EGFR (human), P00533 [G719C]
[17] = target: BRSK2 (human) (UniProt Q8IWQ3)
[18] = target: AKT3 (human) (UniProt Q9Y243)
[19] = target: MAPK13 (human) (UniProt O15264)
[20] = target: LYN (human) (UniProt P07948)
[21] = target: PRKACB (human) (UniProt P22694)
[22] = target: DAPK2 (human) (UniProt Q9UIK4)
[23] = target: CDK18 (human) (UniProt Q07002)
[24] = target: CSK (human) (UniProt P41240)
[25] = target: PIP4K2B (human) (UniProt P78356)
[26] = target: CAMK2G (human) (UniProt Q13555)
[27] = target: EPHA4 (human) (UniProt P54764)
[28] = target: PRKD3 (human) (UniProt O94806)
[29] = target: IKBKE (human) (UniProt Q14164)
[30] = target: TEC (human) (UniProt P42680)
[31] = target: JAK1 JH2 pseudokinase (human) (UniProt P23458)
[32] = target: MAPK1 (human) (UniProt P28482)
[33] = target: NLK (human) (UniProt Q9UBE8)
[34] = target: NUAK1 (human) (UniProt O60285)
[35] = target: CAMK1G (human) (UniProt Q96NX5)
[36] = target: MAP4K2 (human) (UniProt Q12851)
[37] = target: ACVRL1 (human) (UniProt P37023)
[38] = target: CHUK (human) (UniProt O15111)
[39] = target: IKBKB (human) (UniProt O14920)
[40] = target: MAP3K3 (human) (UniProt Q99759)

Chain of STK17B (human) (O94768 whole entry, looked up): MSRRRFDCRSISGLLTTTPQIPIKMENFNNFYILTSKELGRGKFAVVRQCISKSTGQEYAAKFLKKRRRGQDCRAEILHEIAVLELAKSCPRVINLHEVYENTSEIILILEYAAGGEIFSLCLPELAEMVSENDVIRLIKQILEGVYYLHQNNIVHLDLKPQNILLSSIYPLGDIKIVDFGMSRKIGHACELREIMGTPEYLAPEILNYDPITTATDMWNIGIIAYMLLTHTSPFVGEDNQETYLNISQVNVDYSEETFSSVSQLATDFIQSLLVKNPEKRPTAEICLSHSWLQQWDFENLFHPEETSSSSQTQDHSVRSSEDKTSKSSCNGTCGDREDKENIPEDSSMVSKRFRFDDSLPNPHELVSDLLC
Chain of DCLK3 (human) (Q9C098 whole entry, looked up): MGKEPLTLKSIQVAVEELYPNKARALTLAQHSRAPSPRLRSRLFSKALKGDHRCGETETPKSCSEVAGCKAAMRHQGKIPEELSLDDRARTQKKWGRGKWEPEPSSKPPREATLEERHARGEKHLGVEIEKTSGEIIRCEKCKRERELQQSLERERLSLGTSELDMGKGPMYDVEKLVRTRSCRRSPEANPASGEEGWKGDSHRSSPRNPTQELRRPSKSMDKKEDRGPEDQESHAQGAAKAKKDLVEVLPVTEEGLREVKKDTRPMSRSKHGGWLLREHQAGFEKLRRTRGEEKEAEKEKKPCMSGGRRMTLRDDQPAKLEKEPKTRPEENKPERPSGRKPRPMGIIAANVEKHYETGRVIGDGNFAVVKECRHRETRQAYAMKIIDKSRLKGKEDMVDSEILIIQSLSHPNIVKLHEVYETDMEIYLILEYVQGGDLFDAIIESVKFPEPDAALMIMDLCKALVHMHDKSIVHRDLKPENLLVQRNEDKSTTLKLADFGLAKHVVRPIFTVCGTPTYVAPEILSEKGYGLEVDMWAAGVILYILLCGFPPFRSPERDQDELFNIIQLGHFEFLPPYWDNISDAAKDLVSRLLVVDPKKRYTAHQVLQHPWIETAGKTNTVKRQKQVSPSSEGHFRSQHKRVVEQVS
Chain of ACVRL1 (human) (P37023 whole entry, looked up): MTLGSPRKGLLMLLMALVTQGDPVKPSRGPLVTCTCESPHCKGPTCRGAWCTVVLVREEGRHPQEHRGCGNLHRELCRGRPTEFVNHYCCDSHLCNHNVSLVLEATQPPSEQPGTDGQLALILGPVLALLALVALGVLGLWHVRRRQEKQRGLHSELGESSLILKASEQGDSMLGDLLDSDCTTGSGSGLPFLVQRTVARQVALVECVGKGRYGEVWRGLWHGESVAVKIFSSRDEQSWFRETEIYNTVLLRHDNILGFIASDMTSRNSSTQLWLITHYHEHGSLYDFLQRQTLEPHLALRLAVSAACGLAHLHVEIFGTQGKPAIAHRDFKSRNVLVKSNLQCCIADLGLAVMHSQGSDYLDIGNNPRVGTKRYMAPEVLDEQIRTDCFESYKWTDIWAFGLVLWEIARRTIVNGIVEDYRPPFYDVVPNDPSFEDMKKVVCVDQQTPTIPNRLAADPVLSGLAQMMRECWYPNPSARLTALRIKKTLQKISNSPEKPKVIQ
Chain of TEC (human) (P42680 whole entry, looked up): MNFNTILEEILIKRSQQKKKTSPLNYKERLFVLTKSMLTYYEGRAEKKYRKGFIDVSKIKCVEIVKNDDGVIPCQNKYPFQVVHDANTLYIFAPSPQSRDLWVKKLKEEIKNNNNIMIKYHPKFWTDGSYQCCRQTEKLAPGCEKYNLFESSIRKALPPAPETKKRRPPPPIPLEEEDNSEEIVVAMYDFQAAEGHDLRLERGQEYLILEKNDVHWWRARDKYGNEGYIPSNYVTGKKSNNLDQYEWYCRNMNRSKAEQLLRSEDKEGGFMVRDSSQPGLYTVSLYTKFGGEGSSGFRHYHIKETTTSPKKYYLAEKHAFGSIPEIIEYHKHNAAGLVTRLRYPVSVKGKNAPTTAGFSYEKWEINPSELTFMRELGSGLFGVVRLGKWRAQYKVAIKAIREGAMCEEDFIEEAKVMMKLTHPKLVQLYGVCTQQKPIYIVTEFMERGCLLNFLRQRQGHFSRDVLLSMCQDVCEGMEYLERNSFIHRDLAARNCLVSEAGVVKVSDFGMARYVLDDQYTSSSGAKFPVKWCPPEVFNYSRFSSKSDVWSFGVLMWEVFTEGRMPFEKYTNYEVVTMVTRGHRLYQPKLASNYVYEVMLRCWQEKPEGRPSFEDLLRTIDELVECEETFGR
Chain of JAK1 JH2 pseudokinase (human) (P23458 whole entry, looked up): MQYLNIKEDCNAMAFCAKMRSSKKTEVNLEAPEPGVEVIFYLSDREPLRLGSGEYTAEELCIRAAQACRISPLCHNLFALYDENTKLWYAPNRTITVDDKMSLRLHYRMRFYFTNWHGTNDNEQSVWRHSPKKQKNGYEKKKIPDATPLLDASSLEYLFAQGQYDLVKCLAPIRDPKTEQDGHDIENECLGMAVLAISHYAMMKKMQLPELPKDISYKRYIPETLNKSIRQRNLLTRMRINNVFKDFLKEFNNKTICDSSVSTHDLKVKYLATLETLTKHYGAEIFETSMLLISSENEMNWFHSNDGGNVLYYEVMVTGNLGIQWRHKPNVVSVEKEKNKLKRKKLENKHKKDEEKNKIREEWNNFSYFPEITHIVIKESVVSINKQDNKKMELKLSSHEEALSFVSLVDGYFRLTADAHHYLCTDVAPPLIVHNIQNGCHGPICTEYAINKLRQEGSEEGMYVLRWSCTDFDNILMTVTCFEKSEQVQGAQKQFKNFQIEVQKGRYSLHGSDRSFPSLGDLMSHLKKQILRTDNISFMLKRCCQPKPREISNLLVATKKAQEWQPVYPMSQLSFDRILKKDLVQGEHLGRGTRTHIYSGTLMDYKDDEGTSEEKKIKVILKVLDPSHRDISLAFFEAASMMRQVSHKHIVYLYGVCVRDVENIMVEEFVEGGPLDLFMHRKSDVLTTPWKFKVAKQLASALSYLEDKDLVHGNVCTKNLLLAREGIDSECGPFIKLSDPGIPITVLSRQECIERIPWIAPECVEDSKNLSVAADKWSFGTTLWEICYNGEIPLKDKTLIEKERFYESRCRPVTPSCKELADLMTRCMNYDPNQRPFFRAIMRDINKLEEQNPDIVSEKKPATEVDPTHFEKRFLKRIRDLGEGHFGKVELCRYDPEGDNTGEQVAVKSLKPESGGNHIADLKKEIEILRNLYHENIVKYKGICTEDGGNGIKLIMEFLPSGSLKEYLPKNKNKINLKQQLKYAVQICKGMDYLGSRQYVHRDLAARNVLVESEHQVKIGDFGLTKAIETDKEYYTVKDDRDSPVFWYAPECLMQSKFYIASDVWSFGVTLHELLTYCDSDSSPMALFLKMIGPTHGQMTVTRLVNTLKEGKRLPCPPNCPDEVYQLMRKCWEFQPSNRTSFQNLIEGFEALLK
Chain of CDK18 (human) (Q07002 whole entry, looked up): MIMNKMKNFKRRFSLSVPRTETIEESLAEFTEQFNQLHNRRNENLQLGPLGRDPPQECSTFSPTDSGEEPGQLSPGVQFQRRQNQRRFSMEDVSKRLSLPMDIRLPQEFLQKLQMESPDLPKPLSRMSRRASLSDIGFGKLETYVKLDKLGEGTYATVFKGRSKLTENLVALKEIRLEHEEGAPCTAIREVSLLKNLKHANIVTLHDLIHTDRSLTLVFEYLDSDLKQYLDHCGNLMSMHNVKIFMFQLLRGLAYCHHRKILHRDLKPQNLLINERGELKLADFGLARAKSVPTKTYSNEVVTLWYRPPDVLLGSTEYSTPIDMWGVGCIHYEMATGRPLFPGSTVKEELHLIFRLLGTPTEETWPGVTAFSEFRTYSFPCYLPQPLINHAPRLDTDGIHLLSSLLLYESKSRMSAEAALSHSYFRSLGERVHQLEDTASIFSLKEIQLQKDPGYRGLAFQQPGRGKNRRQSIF
Chain of PIP4K2B (human) (P78356 whole entry, looked up): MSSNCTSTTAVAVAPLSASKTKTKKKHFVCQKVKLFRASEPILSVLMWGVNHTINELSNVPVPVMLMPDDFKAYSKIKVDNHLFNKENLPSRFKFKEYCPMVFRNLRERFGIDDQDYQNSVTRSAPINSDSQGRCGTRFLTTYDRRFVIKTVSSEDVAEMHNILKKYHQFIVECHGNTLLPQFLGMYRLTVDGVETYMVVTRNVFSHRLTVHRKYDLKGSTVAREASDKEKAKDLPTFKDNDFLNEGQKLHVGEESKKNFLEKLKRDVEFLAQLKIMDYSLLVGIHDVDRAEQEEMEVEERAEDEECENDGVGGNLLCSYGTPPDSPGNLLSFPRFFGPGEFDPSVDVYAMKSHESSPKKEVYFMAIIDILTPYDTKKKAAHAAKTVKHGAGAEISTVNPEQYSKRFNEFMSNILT
Chain of NEK7 (human) (Q8TDX7 whole entry, looked up): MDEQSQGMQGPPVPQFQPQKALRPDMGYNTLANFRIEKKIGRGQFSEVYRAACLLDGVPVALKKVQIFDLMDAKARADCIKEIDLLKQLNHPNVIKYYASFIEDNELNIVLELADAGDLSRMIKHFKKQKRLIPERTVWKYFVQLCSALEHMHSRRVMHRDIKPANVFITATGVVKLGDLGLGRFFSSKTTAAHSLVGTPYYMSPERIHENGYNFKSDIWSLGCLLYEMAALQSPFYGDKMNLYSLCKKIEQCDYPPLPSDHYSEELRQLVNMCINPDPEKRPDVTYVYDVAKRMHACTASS
Chain of BLK (human) (P51451 whole entry, looked up): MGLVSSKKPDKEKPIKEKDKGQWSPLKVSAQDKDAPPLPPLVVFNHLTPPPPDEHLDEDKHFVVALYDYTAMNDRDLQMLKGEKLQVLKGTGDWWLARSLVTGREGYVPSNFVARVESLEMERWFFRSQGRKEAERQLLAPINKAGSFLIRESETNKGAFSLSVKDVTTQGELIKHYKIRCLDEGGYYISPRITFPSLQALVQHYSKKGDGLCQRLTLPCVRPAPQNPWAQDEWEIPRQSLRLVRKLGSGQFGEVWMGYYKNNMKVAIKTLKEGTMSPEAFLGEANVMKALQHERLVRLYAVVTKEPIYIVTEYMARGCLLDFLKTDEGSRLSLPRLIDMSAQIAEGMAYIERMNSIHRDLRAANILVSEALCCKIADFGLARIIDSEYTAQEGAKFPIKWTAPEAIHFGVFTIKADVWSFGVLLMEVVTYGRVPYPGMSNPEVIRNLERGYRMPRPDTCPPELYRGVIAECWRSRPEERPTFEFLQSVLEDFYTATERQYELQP

Structure (SMILES)	kinase still bound, per cent of control [1] [%]	kinase still bound, per cent of control [2] [%]	kinase still bound, per cent of control [3] [%]	kinase still bound, per cent of control [4] [%]	kinase still bound, per cent of control [5] [%]	kinase still bound, per cent of control [6] [%]	kinase still bound, per cent of control [7] [%]	kinase still bound, per cent of control [8] [%]	kinase still bound, per cent of control [9] [%]	kinase still bound, per cent of control [10] [%]	kinase still bound, per cent of control [11] [%]	kinase still bound, per cent of control [12] [%]	kinase still bound, per cent of control [13] [%]	kinase still bound, per cent of control [14] [%]	kinase still bound, per cent of control [15] [%]	kinase still bound, per cent of control [16] [%]	kinase still bound, per cent of control [17] [%]	kinase still bound, per cent of control [18] [%]	kinase still bound, per cent of control [19] [%]	kinase still bound, per cent of control [20] [%]	also measured
CCOc1cc(N2CCC(O)CC2)ccc1Nc1ncc2c(n1)N(C)c1ccccc1C(=O)N2C	100	100	100	100	100	100	100	100	100	100	100	100	100	100	100	100	100	100	100	100	kinase still bound, per cent of control [21]: 100%; kinase still bound, per cent of control [22]: 100%; kinase still bound, per cent of control [23]: 100%; kinase still bound, per cent of control [24]: 100%; kinase still bound, per cent of control [25]: 100%; kinase still bound, per cent of control [26]: 100%; kinase still bound, per cent of control [27]: 100%; kinase still bound, per cent of control [28]: 100%; kinase still bound, per cent of control [29]: 100%; kinase still bound, per cent of control [30]: 100%; kinase still bound, per cent of control [31]: 100%; kinase still bound, per cent of control [32]: 100%; kinase still bound, per cent of control [33]: 100%; kinase still bound, per cent of control [34]: 100%; kinase still bound, per cent of control [35]: 100%; kinase still bound, per cent of control [36]: 100%; kinase still bound, per cent of control [37]: 100%; kinase still bound, per cent of control [38]: 100%; kinase still bound, per cent of control [39]: 100%; kinase still bound, per cent of control [40]: 100%
N#Cc1cc(-c2ccnc(Nc3ccc(-n4cnc(-c5cccnc5)n4)cc3)n2)cc(N2CCOCC2)c1	56	12	25	63	45	60	90	100	100	90	14	100	75	86	40	71	98	100	61	78	kinase still bound, per cent of control [21]: 100%; kinase still bound, per cent of control [22]: 96%; kinase still bound, per cent of control [23]: 43%; kinase still bound, per cent of control [24]: 66%; kinase still bound, per cent of control [25]: 6.9%; kinase still bound, per cent of control [26]: 32%; kinase still bound, per cent of control [27]: 79%; kinase still bound, per cent of control [28]: 100%; kinase still bound, per cent of control [29]: 37%; kinase still bound, per cent of control [30]: 93%; kinase still bound, per cent of control [31]: 0.95%; kinase still bound, per cent of control [32]: 100%; kinase still bound, per cent of control [33]: 76%; kinase still bound, per cent of control [34]: 100%; kinase still bound, per cent of control [35]: 48%; kinase still bound, per cent of control [36]: 10%; kinase still bound, per cent of control [37]: 100%; kinase still bound, per cent of control [38]: 55%; kinase still bound, per cent of control [39]: 38%; kinase still bound, per cent of control [40]: 30%
O=c1[nH]c2ccccc2n1C1CCN(Cc2ccc(-c3nc4cc5[nH]cnc5cc4nc3-c3ccccc3)cc2)CC1	89	92	100	92	82	87	89	100	100	100	51	91	100	76	88	53	88	100	100	72	kinase still bound, per cent of control [21]: 100%; kinase still bound, per cent of control [22]: 100%; kinase still bound, per cent of control [23]: 97%; kinase still bound, per cent of control [24]: 93%; kinase still bound, per cent of control [25]: 88%; kinase still bound, per cent of control [26]: 100%; kinase still bound, per cent of control [27]: 100%; kinase still bound, per cent of control [28]: 100%; kinase still bound, per cent of control [29]: 100%; kinase still bound, per cent of control [30]: 100%; kinase still bound, per cent of control [31]: 79%; kinase still bound, per cent of control [32]: 100%; kinase still bound, per cent of control [33]: 87%; kinase still bound, per cent of control [34]: 100%; kinase still bound, per cent of control [35]: 90%; kinase still bound, per cent of control [36]: 71%; kinase still bound, per cent of control [37]: 100%; kinase still bound, per cent of control [38]: 75%; kinase still bound, per cent of control [39]: 79%; kinase still bound, per cent of control [40]: 83%
